Measured values published in patent US11168086B2, “Methods of synthesizing pyrazine compounds” (Hoffmann-La Roche Inc., priority 2015, dated 2021).

System: HBV
Assay: HBV inhibition assay: anti-HBV activity in vitro in HepG2.2.15 cells (extracellular HBV DNA by qPCR)
Type: cell-based
Conditions: Hepatitis B virus, 120 h, five days after compound treatment, extracellular HBV DNA in culture supernatant by qPCR, concentration at which HBV replication is inhibited by 50%
From the text: Example 441: HBV Inhibition Assays
Cell Line and Culture Conditions:
HepG2.2.15 is a stably-transfected cell line containing the HBV genome. It is derived from the hepatoblastoma cell line Hep G2 (American Type Culture Collection, ATCC® HB-8065™) by the published procedures described in reference: MA Selles et al. Proc. Natl. Acad. Sci. USA 1987, 84, 1005-1009. The cell line was maintained in Dulbecco's modified Eagle's medium (DMEM)-F12 medium supplemented with 10% fetal bovine serum, 100 U/mL penicillin, 100 μg/mL streptomycin, and 0.5 mg/mL of G418.
Anti-HBV Activity In Vitro:
HepG2.2.15 cells were seeded into 96-well plates (3×10^4 cells in 100 μL media per well) and incubated overnight at 37° C. The test compounds were serially half-log diluted in DMSO, then diluted 100 times in culture media. 100 μL diluted compounds were added into the plates to reach 0.5% final concentration of DMSO in every well. Five days after compound treatment, culture supernatant was collected for further analysis.
For quantitative PCR detection of extracellular HBV DNA, culture supernatant was processed by Proteinase K digestion. After heat inactivation of the enzyme, the samples were subjected to HBV DNA quantification by qPCR. The effective compound concentration at which
HBV replication is inhibited by 50% (EC50) was determined.

Row | Structure (SMILES) | EC50 [µM]
1 | N#Cc1cc(NC(=O)N2CCn3cnc(-c4ccc(F)cc4F)c3C2)ccc1F [Example 136, N-(3-cyano-4-fluoro-phenyl)-1-(2,4-difluorophenyl)-6,8-dihydro-5H-imidazo[1,5-a]pyrazine-7-carboxamide] | 0.056
2 | O=C(Nc1cc(F)c(F)c(F)c1)N1CCn2cnc(-c3ccc(F)cc3F)c2C1 [Example 138, 1-(2,4-difluorophenyl)-N-(3,4,5-trifluorophenyl)-6,8-dihydro-5H-imidazo[1,5-a]pyrazine-7-carboxamide] | 0.037
3 | C#Cc1cc(NC(=O)N2CCn3ncc(-c4ccc(F)cc4F)c3C2)ccc1F [Example 139, 3-(2,4-difluorophenyl)-N-(3-ethynyl-4-fluoro-phenyl)-6,7-dihydro-4H-pyrazolo[1,5-a]pyrazine-5-carboxamide] | 0.046
4 | N#Cc1cc(NC(=O)N2CCn3ncc(-c4ccc(F)cc4F)c3C2)ccc1F [Example 142, N-(3-cyano-4-fluoro-phenyl)-3-(2,4-difluorophenyl)-6,7-dihydro-4H-pyrazolo[1,5-a]pyrazine-5-carboxamide] | 0.056
5 | O=C(Nc1ccc(F)c(C2CC2)c1)N1CCn2ncc(-c3ccc(F)cc3F)c2C1 [Example 150, N-(3-cyclopropyl-4-fluoro-phenyl)-3-(2,4-difluorophenyl)-6,7-dihydro-4H-pyrazolo[1,5-a]pyrazine-5-carboxamide] | 0.058
6 | O=C(Nc1ccc(F)c(Cl)c1)N1CCn2nnc(-c3ccc(F)cc3F)c2C1 [Example 155, N-(3-chloro-4-fluoro-phenyl)-3-(2,4-difluorophenyl)-6,7-dihydro-4H-triazolo[1,5-a]pyrazine-5-carboxamide] | 0.04
7 | Cc1cc(NC(=O)N2Cc3c(-c4ccc(F)cn4)cnn3CC2C)cc(F)c1F (centres unmarked) [Example 156, N-(3,4-difluoro-5-methyl-phenyl)-3-(5-fluoro-2-pyridyl)-6-methyl-6,7-dihydro-4H-pyrazolo[1,5-a]pyrazine-5-carboxamide] | 0.025
8 | CC1Cn2ncc(-c3ccc(F)cn3)c2CN1C(=O)Nc1ccc(F)c(C2CC2)c1 (centres unmarked) [Example 157, N-(3-cyclopropyl-4-fluoro-phenyl)-3-(5-fluoro-2-pyridyl)-6-methyl-6,7-dihydro-4H-pyrazolo[1,5-a]pyrazine-5-carboxamide] | 0.083
9 | CC1Cn2ncc(-c3ccc(F)cn3)c2CN1C(=O)Nc1cc(F)c(F)c(Cl)c1 (centres unmarked) [Example 158, N-(3-chloro-4,5-difluoro-phenyl)-3-(5-fluoro-2-pyridyl)-6-methyl-6,7-dihydro-4H-pyrazolo[1,5-a]pyrazine-5-carboxamide] | 0.044
10 | Cc1cc(NC(=O)N2CCn3cnc(-c4ccc(F)cc4F)c3C2)cc(F)c1F [Example 167, N-(3,4-difluoro-5-methyl-phenyl)-1-(2,4-difluorophenyl)-6,8-dihydro-5H-imidazo[1,5-a]pyrazine-7-carboxamide] | 0.015
11 | O=C(Nc1ccc(F)c(Cl)c1)N1CCn2ncc(N3CCCC3=O)c2C1 [Example 170, N-(3-chloro-4-fluoro-phenyl)-3-(2-oxopyrrolidin-1-yl)-6,7-dihydro-4H-pyrazolo[1,5-a]pyrazine-5-carboxamide] | 0.046
12 | Cc1cnn(-c2cnn3c2CN(C(=O)Nc2ccc(F)c(Cl)c2)CC3)c1 [Example 171, N-(3-chloro-4-fluoro-phenyl)-3-(4-methylpyrazol-1-yl)-6,7-dihydro-4H-pyrazolo[1,5-a]pyrazine-5-carboxamide] | 0.045
13 | CC1Cn2ncc(-c3ccc(F)cc3F)c2CN1C(=O)Nc1ccnc(F)c1 (centres unmarked) [Example 174, 3-(2,4-difluorophenyl)-N-(2-fluoro-4-pyridyl)-6-methyl-6,7-dihydro-4H-pyrazolo[1,5-a]pyrazine-5-carboxamide] | 0.066
14 | Cc1cc(NC(=O)N2CCn3ncc(-c4ccc(F)cc4)c3C2)ccn1 [Example 176, 3-(4-fluorophenyl)-N-(2-methyl-4-pyridyl)-6,7-dihydro-4H-pyrazolo[1,5-a]pyrazine-5-carboxamide] | 0.052
